Measured values as given in PubChem BioAssay AID330 (DTP/NCI, 2004).
Where “and” joins values, the source holds several entries; their conditions need not be identical. Identical values can stand only once. Inconclusive results and toxic doses are left out. How the source made its calls: active means survival T/C of 150% or more; inactive means T/C below 125% in these data.

System: P388 leukemia ip, CD2F1 mice, survival T/C
Assay: NCI In Vivo Anticancer Drug Screen. Data for tumor model P388 Leukemia (intraperitoneal) in CD2F1 (CDF1) mice
Conditions: endpoint: median survival time, higher = longer survival
Procedure, shortened: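 Mice carrying the transplanted tumor received test compound or vehicle. Survival was recorded in each group, and the value is the treated-group measurement divided by that of the vehicle-treated control group.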

[1] = dose: 12.5 mg/kg/injection, schedule: Q01DX009 (ip), vehicle: saline
[2] = dose: 50.0 mg/kg/injection, schedule: Q01DX009 (ip), vehicle: saline
[3] = dose: 100.0 mg/kg/injection, schedule: Q01DX009 (ip), vehicle: saline
[4] = dose: 100.0 mg/kg/injection, schedule: Q04DX003 (ip), vehicle: Klucel (hydroxypropylcellulose) (HPC)
[5] = dose: 200.0 mg/kg/injection, schedule: Q04DX003 (ip), vehicle: Klucel (hydroxypropylcellulose) (HPC)
[6] = dose: 400.0 mg/kg/injection, schedule: Q04DX003 (ip), vehicle: Klucel (hydroxypropylcellulose) (HPC)
[7] = dose: 25.0 mg/kg/injection, schedule: Q04DX003 (ip), vehicle: saline with Tween-80
[8] = dose: 60.0 mg/kg/injection, schedule: Q01DX005 (ip), vehicle: saline with Tween-80
[9] = dose: 50.0 mg/kg/injection, schedule: Q01DX005 (ip), vehicle: Klucel (hydroxypropylcellulose) (HPC)
[10] = dose: 100.0 mg/kg/injection, schedule: Q01DX005 (ip), vehicle: Klucel (hydroxypropylcellulose) (HPC)
[11] = dose: 200.0 mg/kg/injection, schedule: Q01DX005 (ip), vehicle: Klucel (hydroxypropylcellulose) (HPC)
[12] = dose: 50.0 mg/kg/injection, schedule: Q01DX009 (ip), vehicle: Klucel (hydroxypropylcellulose) (HPC)
[13] = dose: 100.0 mg/kg/injection, schedule: Q01DX009 (ip), vehicle: Klucel (hydroxypropylcellulose) (HPC)
[14] = dose: 100.0 mg/kg/injection, schedule: Q04DX002 (ip), vehicle: saline with Tween-80
[15] = dose: 200.0 mg/kg/injection, schedule: Q04DX002 (ip), vehicle: saline with Tween-80
[16] = dose: 400.0 mg/kg/injection, schedule: Q04DX002 (ip), vehicle: saline with Tween-80
[17] = dose: 200.0 mg/kg/injection, schedule: Q01DX009 (ip), vehicle: Klucel (hydroxypropylcellulose) (HPC)

Measured: T/C

O=N[O-].O=N[O-].O=[N+]([O-])O.[Co+3].[NH-]CC[NH-].[NH-]CC[NH-]
inactive: [1] 104 % of control | dose: 25.0 mg/kg/injection, schedule: Q01DX009 (ip), vehicle: saline 98 % of control | [2] 100 % of control and 98 % of control | [3] 100 % of control

O=C1COCC(=O)OCCOCCOCCOCCO1
inactive: [4] 99 % of control | [5] 102 % of control | [6] 99 % of control

O=[N+]([O-])c1cnc(Sc2ccncn2)s1
inactive: dose: 1.56 mg/kg/injection, schedule: Q01DX009 (ip), vehicle: saline 103 % of control | dose: 3.12 mg/kg/injection, schedule: Q01DX009 (ip), vehicle: saline 108 % of control | dose: 6.25 mg/kg/injection, schedule: Q01DX009 (ip), vehicle: saline 100 % of control and 87 % of control | [1] 93 % of control

C=C1CC2(CCOc3ccccc32)OC1=O (stereo unspecified)
inactive: [7] 105 % of control | dose: 50.0 mg/kg/injection, schedule: Q04DX003 (ip), vehicle: saline with Tween-80 115 % of control | dose: 100.0 mg/kg/injection, schedule: Q04DX003 (ip), vehicle: saline with Tween-80 108 % of control and 117 % of control | dose: 200.0 mg/kg/injection, schedule: Q04DX003 (ip), vehicle: saline with Tween-80 90 % of control

COC(=O)C1CC(OC(C)=O)C(=O)[C@H]2C1(C)CC[C@H]1C(=O)O[C@H](c3ccoc3)CC12C (stereo partly specified)
inactive: dose: 19.0 mg/kg/injection, schedule: Q01DX005 (ip), vehicle: Klucel (hydroxypropylcellulose) (HPC) 94 % of control | dose: 38.0 mg/kg/injection, schedule: Q01DX005 (ip), vehicle: Klucel (hydroxypropylcellulose) (HPC) 87 % of control | dose: 76.0 mg/kg/injection, schedule: Q01DX005 (ip), vehicle: Klucel (hydroxypropylcellulose) (HPC) 90 % of control

CC(=O)OCCOCNC(=S)NN
inactive: [8] 101 % of control | dose: 120.0 mg/kg/injection, schedule: Q01DX005 (ip), vehicle: saline with Tween-80 101 % of control | dose: 240.0 mg/kg/injection, schedule: Q01DX005 (ip), vehicle: saline with Tween-80 90 % of control

CSc1nc(Cl)c2ncn(C3C=CC(OC(C)=O)CO3)c2n1 (stereo unspecified)
inactive: [9] 103 % of control | [10] 99 % of control | [11] 109 % of control

N#CC1(C#N)C2C=CC(C3CC=CC32)C1(C#N)C#N (stereo unspecified)
inactive: dose: 3.13 mg/kg/injection, schedule: Q01DX009 (ip), vehicle: Klucel (hydroxypropylcellulose) (HPC) 106 % of control | dose: 6.25 mg/kg/injection, schedule: Q01DX009 (ip), vehicle: Klucel (hydroxypropylcellulose) (HPC) 98 % of control | dose: 12.5 mg/kg/injection, schedule: Q01DX009 (ip), vehicle: Klucel (hydroxypropylcellulose) (HPC) 110 % of control | dose: 25.0 mg/kg/injection, schedule: Q01DX009 (ip), vehicle: Klucel (hydroxypropylcellulose) (HPC) 108 % of control

NC(N)=NS(=O)(=O)c1ccc(N=Nc2c(O)n(-c3ccccc3)n(-c3ccccc3)c2=O)cc1
inactive: [12] 88 % of control | [13] 94 % of control

c1ccc2c3c(ccc2c1)OCCOCCOc1ccc2ccccc2c1-c1c(ccc2ccccc12)OCCOCCOc1ccc2ccccc2c1-3
inactive: [14] 96 % of control | [15] 89 % of control | [16] 91 % of control

OCC1OC2OC3C(CO)OC(OC4C(CO)OC(OC5C(CO)OC(OC6C(CO)OC(OC7C(CO)OC(OC8C(CO)OC(OC1C(O)C2O)C(O)C8O)C(O)C7O)C(O)C6O)C(O)C5O)C(O)C4O)C(O)C3O (stereo unspecified)
inactive: [2] 100 % of control | [3] 94 % of control

CC(C)OSc1ccccc1
inactive: dose: 12.5 mg/kg/injection, schedule: Q01DX001 (ip), vehicle: Klucel (hydroxypropylcellulose) (HPC) 113 % of control | dose: 25.0 mg/kg/injection, schedule: Q01DX001 (ip), vehicle: Klucel (hydroxypropylcellulose) (HPC) 113 % of control | dose: 50.0 mg/kg/injection, schedule: Q01DX001 (ip), vehicle: Klucel (hydroxypropylcellulose) (HPC) 102 % of control | dose: 100.0 mg/kg/injection, schedule: Q01DX001 (ip), vehicle: Klucel (hydroxypropylcellulose) (HPC) 103 % of control and 107 % of control and 97 % of control

Cc1ccccc1C(=O)c1cc(Br)ccc1[N+](=O)[O-]
inactive: [2] 91 % of control | [3] 100 % of control | dose: 200.0 mg/kg/injection, schedule: Q01DX009 (ip), vehicle: saline 100 % of control

CC1(C)c2ccccc2-c2nc3ccccc3nc2C1O (stereo unspecified)
inactive: [4] 110 % of control | [5] 99 % of control | [6] 112 % of control

Cc1cc(O)c(CO)cc1C
inactive: [14] 104 % of control | [15] 110 % of control | [16] 107 % of control

CCN(CC)CCCNc1cccc2c(SCc3ccccc3)ccnc12
inactive: dose: 50.0 mg/kg/injection, schedule: Q01DX005 (ip), vehicle: saline with Tween-80 112 % of control | dose: 100.0 mg/kg/injection, schedule: Q01DX005 (ip), vehicle: saline with Tween-80 102 % of control

C(/CSC/C=N/Nc1ccccc1)=N\Nc1ccccc1
inactive: [2] 103 % of control | [3] 103 % of control

N#Cc1ccccc1C#N
inactive: dose: 1.56 mg/kg/injection, schedule: Q04DX003 (ip), vehicle: saline 98 % of control | dose: 3.13 mg/kg/injection, schedule: Q04DX003 (ip), vehicle: saline 98 % of control | dose: 6.25 mg/kg/injection, schedule: Q04DX003 (ip), vehicle: saline 100 % of control | dose: 12.5 mg/kg/injection, schedule: Q04DX003 (ip), vehicle: saline with Tween-80 104 % of control | dose: 12.5 mg/kg/injection, schedule: Q04DX003 (ip), vehicle: saline 100 % of control | [7] 95 % of control

NOCc1ccccc1
inactive: [13] 93 % of control | [17] 86 % of control

COC(=O)C(NP(=O)(NC(C(=O)OC)c1ccccc1)N(CCCl)CCCl)c1ccccc1 (stereo unspecified)
inactive: dose: 7.5 mg/kg/injection, schedule: Q01DX005 (ip), vehicle: saline with Tween-80 102 % of control | dose: 15.0 mg/kg/injection, schedule: Q01DX005 (ip), vehicle: saline with Tween-80 100 % of control | dose: 30.0 mg/kg/injection, schedule: Q01DX005 (ip), vehicle: saline with Tween-80 101 % of control

CCOP1(OCC)(SSC)OC(=O)C(C)S1 (stereo unspecified)
inactive: dose: 5.0 mg/kg/injection, schedule: Q01DX005 (ip), vehicle: saline with Tween-80 108 % of control | dose: 10.0 mg/kg/injection, schedule: Q01DX005 (ip), vehicle: saline with Tween-80 101 % of control | dose: 20.0 mg/kg/injection, schedule: Q01DX005 (ip), vehicle: saline with Tween-80 108 % of control | [8] 94 % of control

OCC1OC(n2nc(Cl)c3ccccc32)C(O)C1O (stereo unspecified)
inactive: dose: 6.25 mg/kg/injection, schedule: Q01DX009 (ip), vehicle: saline with Tween-80 102 % of control | dose: 12.5 mg/kg/injection, schedule: Q01DX009 (ip), vehicle: saline with Tween-80 98 % of control | dose: 25.0 mg/kg/injection, schedule: Q01DX009 (ip), vehicle: saline with Tween-80 94 % of control | dose: 32.0 mg/kg/injection, schedule: Q01DX002 (ip), vehicle: saline with Tween-80 104 % of control | dose: 64.0 mg/kg/injection, schedule: Q01DX002 (ip), vehicle: saline with Tween-80 106 % of control and 107 % of control | dose: 100.0 mg/kg/injection, schedule: Q01DX009 (ip), vehicle: saline with Tween-80 91 % of control | dose: 128.0 mg/kg/injection, schedule: Q01DX002 (ip), vehicle: saline with Tween-80 106 % of control and 107 % of control

COc1ccc2c(c1)N(S(=O)(=O)c1ccc(C)cc1)C/C(=C\N1CCN(c3ccccc3)CC1)C2=O
inactive: [9] 96 % of control | [10] 98 % of control | [11] 91 % of control

Cc1ccc(NC(=O)NNC(=O)CSC2CCc3ccccc32)c(C)c1 (stereo unspecified)
inactive: [9] 92 % of control | [10] 92 % of control | [11] 90 % of control

CNC(=O)c1cc2ccccc2o/c1=N/NC(N)=O
inactive: dose: 100.0 mg/kg/injection, schedule: Q01DX001 (ip), vehicle: saline 103 % of control | dose: 200.0 mg/kg/injection, schedule: Q01DX001 (ip), vehicle: saline 103 % of control | dose: 400.0 mg/kg/injection, schedule: Q01DX001 (ip), vehicle: saline 96 % of control

c1cc2nncn2cn1
inactive: [12] 93 % of control | [13] 104 % of control | [17] 99 % of control
